Experimental data: patent US4410527A, “Substituted thienobenzodiazepinones and salts thereof” (Dr. Karl Thomae Gesellschaft mit beschrankter Haftung, priority 1982, dated 1983)

Key:
[1] = tested on: oxotremorine-induced lesions in mucous membrane of stomach (muscarinic receptors); experiment: Oxotremorine test: protection against oxotremorine-induced lesions of the gastric mucous membrane (anti-ulcerogenic effect); format: in vivo, rat (female albino, Crl:COBS-CD (SD) BR); details: iv, rat, 0.62 mg/kg i.v. oxotremorine, 1 mg/kg oral neostigmine; for ED50: ED50, i.v.; for ED70: ED70, i.v.
Excerpt: (§1) Investigation of the Selectivity of the Antimuscarinic Activity
(§2) Oxotremorine, a specific agonist for muscarinic receptors, produces lesions in the mucous membrane of the stomach in rats and increases their secretion of saliva. This test method was chosen so that any selective activity of an antimuscarinic substance on the stomach could be identified.
(§3) Ten female albino rats (of the Crl:COBS-CD (SD) BR strain) with a body weight of from 120 to 150 gm were used in each treatment group and were kept without food for 24 hours before the start of the test, but given free access to drinking water.
(§4) In order to determine, in preliminary tests, the muscarinic effect of oxotremorine on each of the symptoms studied, a dosage/activity curve was drawn up with at least three dosages for each symptom.
(§5) When testing the antimuscarinic substances, the dosage of oxotremorine which triggered the symptom in question in 90 to 100% of the animals in the preliminary tests was used.
Lesion in mucous membrane of stomach: 0.62 mg/kg i.v.
Each antimuscarinic substance was administered intravenously in uniformly graduated doses 15 minutes before the oxotremorine was administered. Control groups were given corresponding quantities of the solvent and suspending agent instead of the test substance.
(§6) The ED50 values were determined using the method described by LITCHFIELD and WILCOXON [J. Pharmacol. Exp.Ther. 96, 99, (1949)].
The effects on lesions of the mucous membrane of the stomach were evaluated as follows:
The lesions of the gastric mucous membrane were produced by intravenous injection of 0.62 mg/kg of oxotremorin 30 minutes after the oral administration of 1 mg/kg of neostigmine (a cholinesterase inhibitor). 60 minutes after the administration of the neostigmine, the animals were killed, the stomachs were removed, opened and examined for the presence of any lesions in the mucous membrane. The protective effect of the test substances was expressed as the percentage inhibition (percentage of animals without lesions). The ED50 and ED70 values were determined using the method of LITCHFIELD and WILCOXON (supra).

[2] = Mydriasis: effect on pupil size in rats; details: in vivo, iv, rat, pupil size observed for 10 minutes
Protocol: The effect of the test substances on the pupil size in rats was investigated as follows:
The substances were administered intravenously to groups of 10 animals in at least three uniformly graduated doses. […] The percentage of test animals in which mydriasis occurred was determined. The ED50 values were again determined using the method of LITCHFIELD and WILCOXON (supra).

[3] = biological target: muscarinic receptors (cerebral cortex); experiment: Binding to muscarinic receptors, 3H-N-methylscopolamine displacement, cerebral cortex; design: species or system rat (male Sprague-Dawley); details: rat cerebral cortex homogenate 1:3000, 0.3 n molar 3H-NMS, pH 7.4, 30° C., 45 minutes; read-out: Receptor binding tests IC50 Cortex
Protocol: (§7) 2. Studies of Binding to Muscarinic Receptors: Determination of the IC50 value
(§8) The organ donors were male Sprague-Dawley rats with a body weight of from 180 to 220 gm. After the heart, stomach and cerebral cortex had been removed, the remainder of the operation was carried out in ice-cold Hepes-HCl buffer (pH 7.4; 100 m molar NaCl, 10 m molar MgCl2). The smooth muscle of the fundus of the stomach was separated from the mucous membrane of the stomach and subjected to preliminary homogenization. The whole heart was cut up with scissors. All the organs were then homogenized in a Potter apparatus.
(§9) For the binding test, the homogenized organs were diluted as follows:
(§10) The homogenized organ preparations were incubated at a specific concentration of the radioligand and with a series of concentrations of the non-radioactive test substances in an Eppendorf centrifuge tube at 30° C. The duration of incubation was 45 minutes. 0.3 n molar ^3 H-N-methylscopolamine (^3 H-NMS) was used as the radioligand. After incubation had been brought to an end by centrifuging at 14,000 g, the radioactivity in the pellet was determined. It represents the sum of the specific and non-specific binding of ^3 H-NMS. The proportion of non-specific binding was defined as the radioactivity which was bound in the presence of 1μ molar quinuclidinyl benzylate. Four measurements were taken in each case. The IC50 values of the nonlabelled test substances were determined graphically. They represent the concentration of test substance at which the specific binding of ^3 H-NMS to the muscarinic receptors in the various organs was inhibited by 50%.

[4] = biological target: muscarinic receptors (smooth muscle of the fundus of the stomach); experiment: Binding to muscarinic receptors, 3H-N-methylscopolamine displacement, smooth muscle of fundus of stomach; design: species or system rat (male Sprague-Dawley); details: rat stomach fundus smooth muscle homogenate 1:100, 0.3 n molar 3H-NMS, pH 7.4, 30° C., 45 minutes; read-out: Receptor binding tests IC50 Smooth muscle fundus of stomach
Protocol: as §7, §8, §9
Smooth muscle of the fundus of the stomach--1: 100
as §10

[5] = biological target: T1, muscarinic receptors (heart) (Rattus norvegicus, UniProt P10980); experiment: Binding to muscarinic receptors, 3H-N-methylscopolamine displacement, whole heart; design: species or system rat (male Sprague-Dawley); details: rat whole heart homogenate 1:250, 0.3 n molar 3H-NMS, pH 7.4, 30° C., 45 minutes; read-out: Receptor binding tests IC50 Heart
T1 construct: All the organs were then homogenized in a Potter apparatus; from tissue; host or cells: whole heart of male Sprague-Dawley rats, homogenate diluted 1:250
T1 sequence (P10980 1-466): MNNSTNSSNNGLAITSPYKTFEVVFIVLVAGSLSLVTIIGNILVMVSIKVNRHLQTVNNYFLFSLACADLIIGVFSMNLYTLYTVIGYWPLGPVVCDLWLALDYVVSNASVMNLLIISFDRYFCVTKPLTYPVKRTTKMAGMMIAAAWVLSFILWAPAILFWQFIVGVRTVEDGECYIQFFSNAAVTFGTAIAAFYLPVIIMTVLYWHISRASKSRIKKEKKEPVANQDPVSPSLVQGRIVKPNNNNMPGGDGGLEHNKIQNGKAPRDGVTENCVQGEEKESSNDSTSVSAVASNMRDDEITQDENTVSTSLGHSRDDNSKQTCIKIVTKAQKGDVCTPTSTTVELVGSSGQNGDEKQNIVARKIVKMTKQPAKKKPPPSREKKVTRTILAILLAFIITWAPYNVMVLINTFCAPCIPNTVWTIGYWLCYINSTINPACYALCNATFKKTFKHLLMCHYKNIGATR
Protocol: as §7, §8, §9, §10

[6] = tested on: oxotremorine-induced secretion of saliva (muscarinic receptors); experiment: Oxotremorine test: inhibition of oxotremorine-induced secretion of saliva; format: in vivo, rat (female albino, Crl:COBS-CD (SD) BR); details: iv, 0.25 h; i.v., rat, 15 minutes before 0.083 mg/kg i.v. oxotremorine; read-out: Oxotremorine test Inhibition of salivation ED50
Excerpt: as §1, §2, §3, §4, §5
Secretion of saliva: 0.083 mg/kg i.v.
Each antimuscarinic substance was administered intravenously in uniformly graduated doses 15 minutes before the oxotremorine was administered. Control groups were given corresponding quantities of the solvent and suspending agent instead of the test substance. […]
as §6

Row | SMILES | ED50 [1] [mg/kg] | ED70 [1] [mg/kg] | ED50 at 10 min [2] [mg/kg] | IC50 [3] [nM] | IC50 [4] [nM] | IC50 [5] [nM] | ED50 [6] [mg/kg]
1 | CN1CCC(OC(=O)N2c3ccccc3NC(=O)c3cscc32)CC1 [A, 4,9-Dihydro-4-{[(1-methyl-4-piperidinyl)oxy]carbonyl}-10H-thieno[3,4-b][1,5]benzodiazepin-10-one] | 0.017 | 0.025 | 0.11 | 40 | 200 | 180 | 0.1
2 | CN1CCC(NC(=O)N2c3ccccc3NC(=O)c3cscc32)CC1 [B, 4,9-Dihydro-4-{[(1-methyl-4-piperidinyl)amino]carbonyl}-10H-thieno[3,4-b][1,5]benzodiazepin-10-one] | 0.017 | 0.044 | 0.037 | 30 | 300 | 220 | 0.04
3 | CN1CCN(NC(=O)N2c3ccccc3NC(=O)c3cscc32)CC1 [C, 4,9-Dihydro-4-{[(4-methyl-1-piperazinyl)amino]carbonyl}-10H-thieno[3,4-b][1,5]benzodiazepin-10-one] | – | 0.019 | 0.03 | 20 | 200 | 90 | –
